# Source: patent publication US11253500B2, “Sanfetrinem or a salt or ester thereof for use in treating mycobacterial infection” (priority 2017, dated 2022)
# “And” between values parts separate entries of the source, which are not always exact repeats. Equal entries are not always repeated. Structures can show the parent of a compound that is named as a salt. Where two headings read alike, the source gives them in different places.
# Key:
# Mtb H37Rv strain = assay: Checkerboard assay with rifampicin, ethambutol, delamanid and amoxicillin (384-well, MTT or ATP); assay type: cell-based, Mycobacterium tuberculosis; settings: for FIC_B / MICsyn_B: Comp B in the presence of SFT; for Fold_B: MIC/MICsyn of Comp B with SFT; for MIC: Mycobacterium tuberculosis, H37RV, Comp B alone (IC90)
# [1] = test system: Mycobacterium tuberculosis growing inside human THP-1 monocytes; assay: Intracellular viability assay (luciferase Mtb in THP-1 monocytes); assay type: cell-based
# M. tuberculosis H37Rv [2] = assay: MIC determination (extracellular, resazurin); assay type: cell-based, Mycobacterium tuberculosis
# M. tuberculosis H37Rv [3] = assay: Checkerboard combination with amoxicillin and/or clavulanate (resazurin); assay type: cell-based, Mycobacterium tuberculosis
# M. tuberculosis H37Rv [4] = assay: In vivo anti-tubercular activity in DHP-1 KO mice; set-up: species or system Mycobacterium tuberculosis; settings: 129sv DHP-1 KO mice; for Lung CFU: intratracheal infection, twice a day from day 9 to day 14, lungs day 15, mean, untreated 7.4 (Day 9), 9.0 (Day 15); for Effect on bacterial growth in lung: treated day 9 to day 14
# [5] = test system: panel of twenty-three M. tuberculosis strains; assay: microbe, parasite or virus in culture; assay type: cell-based, Mycobacterium tuberculosis; settings: for MIC: Mycobacterium tuberculosis
# [6] = Mycobacterium tuberculosis, w/o clav, average, read-out: MIC50 μM (average w/o clav)
# [7] = Mycobacterium tuberculosis, w/o clav, average, read-out: MIC90 μM (average w/o clav)
# [8] = Mycobacterium tuberculosis, with clav, average, read-out: MIC50 μM (average with clav)
# [9] = Mycobacterium tuberculosis, with clav, average, read-out: MIC90 μM (average with clav)
# [10] = Mycobacterium tuberculosis, H37RV, extracellular, with 4 μg/ml potassium clavulanate, average, read-out: MIC μM (average with clav)
# [11] = Mycobacterium tuberculosis, H37RV, extracellular, with 4 μg/ml potassium clavulanate, separate readings, read-out: MIC μM (with clav)
# [12] = Mycobacterium tuberculosis, H37RV, extracellular, without clavulanate, average, read-out: MIC μM (average w/o clav)
# [13] = Mycobacterium tuberculosis, H37RV, extracellular, without clavulanate, separate readings, read-out: MIC μM (w/o clav)
# [14] = Mycobacterium tuberculosis, H37RV
# [15] = Mycobacterium tuberculosis, w/o clav, separate readings, read-out: MIC50 μM (w/o clav)
# [16] = Mycobacterium tuberculosis, w/o clav, separate readings, read-out: MIC90 μM (w/o clav)
# [17] = Mycobacterium tuberculosis, with clav, separate readings, read-out: MIC50 μM (with clav)
# [18] = Mycobacterium tuberculosis, with clav, separate readings, read-out: MIC90 μM (with clav)
# [19] = w/o clav, separate readings, read-out: MIC50 μM (w/o clav)
# [20] = w/o clav, separate readings, read-out: MIC90 μM (w/o clav)
# [21] = with clav, separate readings, read-out: MIC50 μM (with clav)
# [22] = with clav, separate readings, read-out: MIC90 μM (with clav)
smiles,measurement,setting,value
"CC[C@@H](CO)NCCN[C@@H](CC)CO [EMB, Ethambutol]",FIC_B,Mtb H37Rv strain,0.25
same,MICsyn_B,Mtb H37Rv strain,2 µM
same,Fold_B,Mtb H37Rv strain,4
same,MIC,Mtb H37Rv strain,8 µM
"CO[C@H]1/C=C/O[C@@]2(C)Oc3c(C)c(O)c4c(O)c(c(/C=N/N5CCN(C)CC5)c(O)c4c3C2=O)NC(=O)/C(C)=C\C=C\[C@H](C)[C@H](O)[C@@H](C)[C@@H](O)[C@@H](C)[C@H](OC(C)=O)[C@@H]1C [RIF, Rifampicin]",MICsyn_B,Mtb H37Rv strain,0.005 µM
same,MIC,Mtb H37Rv strain,0.04 µM
C[C@@H](O)[C@H]1C(=O)N2C(C(=O)O)=C(S[C@@H]3CN[C@H](C(=O)Nc4cccc(C(=O)O)c4)C3)[C@H](C)[C@H]12 [Ertapenem],MIC50,[1]; [6],29.6 µM
same,MIC90,[1]; [7],> 50 µM
same,MIC50,[1]; [8],3.84 µM
same,MIC90,[1]; [9],21 µM
same,MIC,M. tuberculosis H37Rv [2]; [10],16.7 µM
same,MIC,M. tuberculosis H37Rv [2]; [11],10 µM
same,MIC,M. tuberculosis H37Rv [2]; [12],> 80 µM
same,MIC,M. tuberculosis H37Rv [2]; [13],80 µM
same,MIC,"M. tuberculosis H37Rv [2]; extracellular, with 4 μg/ml potassium clavulanate, separate readings, read-out: MIC μM (with clav)",20 µM
C[C@@H](O)[C@H]1C(=O)N2C(C(=O)O)=C(SC3CN(C4=NCCS4)C3)[C@H](C)[C@H]12 [Tebipenem],MIC50,[1]; [6],4.51 µM
same,MIC90,[1]; [7],46.5 µM
same,MIC50,[1]; [8],0.49 µM
same,MIC90,[1]; [9],3.61 µM
same,MIC,M. tuberculosis H37Rv [2]; [10],1.25 µM
same,MIC,M. tuberculosis H37Rv [2]; [11],1.25 µM
same,MIC,M. tuberculosis H37Rv [2]; [12],7.5 µM
same,MIC,M. tuberculosis H37Rv [2]; [13],7.5 µM
"C[C@]1(COc2ccc(N3CCC(Oc4ccc(OC(F)(F)F)cc4)CC3)cc2)Cn2cc([N+](=O)[O-])nc2O1 [DLD, Delamanid]",FIC_B,Mtb H37Rv strain,0.25
same,MICsyn_B,Mtb H37Rv strain,0.0025 µM
same,Fold_B,Mtb H37Rv strain,4
same,MIC,Mtb H37Rv strain,0.01 µM
CC1(C)S[C@@H]2[C@H](NC(=O)[C@H](N)c3ccc(O)cc3)C(=O)N2[C@H]1C(=O)O [amoxicillin],IC80,M. tuberculosis H37Rv [3]; [14],42 µg/mL
same,Reaching 90% Inhibition,M. tuberculosis H37Rv [3]; amoxicillin in monotherapy,does not reach a 90% Inhibition
same,Reaching 90% growth inhibition,M. tuberculosis H37Rv [3]; in combination with clavulanate,nor in combination with clavulanate reach the 90% growth inhibition
same,MICsyn_B,Mtb H37Rv strain,8 µM
same,MIC,Mtb H37Rv strain,128 µM
C[C@@H](O)[C@H]1C(=O)N2C(C(=O)O)=C([C@H]3CCCO3)S[C@H]12 [Faropenem],MIC50,[1]; [6],1.85 µM
same,MIC90,[1]; [7],12.3 µM
same,MIC50,[1]; [15],2.2 µM
same,MIC90,[1]; [16],14.7 µM
same,MIC50,[1]; [8],1.1 µM
same,MIC90,[1]; [9],5.75 µM
same,MIC50,[1]; [17],1 µM
same,MIC90,[1]; [18],6.8 µM
same,MIC50,[1]; [19],1.5 µM
same,MIC90,[1]; [20],10.0 µM
same,MIC50,[1]; [21],1.2 µM
same,MIC90,[1]; [22],4.7 µM
same,MIC,M. tuberculosis H37Rv [2]; [10],8.9 µM
same,MIC,M. tuberculosis H37Rv [2]; [12],15.7 µM
"CO[C@H]1CCC[C@H]2C1=C(C(=O)OC(C)OC(=O)OC1CCCCC1)N1C(=O)[C@H]([C@@H](C)O)[C@@H]21 (mixture of isomers) [Sanfetrinem cilexetil, (1S,5S,8aS,8bR)-1-(((cyclohexyloxy)carbonyl)oxy)ethyl 1-((R)-1-hydroxyethyl)-5-methoxy-2-oxo-1,2,5,6,7,8,8a,8b-octahydroazeto[2,1-a]isoindole-4-carboxylate]",Lung CFU,M. tuberculosis H37Rv [4],7.6 log CFU
same,Effect on bacterial growth in lung,M. tuberculosis H37Rv [4],preventing bacterial growth
same,MIC50,[1]; [6],0.85 µM
same,MIC90,[1]; [7],5.2 µM
same,MIC50,[1]; [8],0.6 µM
same,MIC90,[1]; [9],5 µM
same,MIC90,[1]; [18],4.6 µM
same,MIC90,[1]; [22],5.3 µM
same,MIC,M. tuberculosis H37Rv [2]; [10],8.6 µM
same,MIC,M. tuberculosis H37Rv [2]; [12],10.6 µM
"O=C(O)[C@H]1/C(=C/CO)O[C@@H]2CC(=O)N21 [clavulanate, Potassium clavulanate]",Activity alone,M. tuberculosis H37Rv [3]; alone,not active
C[C@@H](O)[C@H]1C(=O)N2C(C(=O)O)=C(S[C@@H]3CN[C@H](C(=O)N(C)C)C3)[C@H](C)[C@H]12 [Meropenem],MIC50,[1]; [6],6.78 µM
same,MIC90,[1]; [7],17 µM
same,MIC50,[1]; [15],8.97 µM
same,MIC90,[1]; [16],19.6 µM
same,MIC50,[1]; [8],1.94 µM
same,MIC90,[1]; [9],5.55 µM
same,MIC50,[1]; [17],2.03 µM
same,MIC90,[1]; [18],5.39 µM
same,MIC50,[1]; [19],4.6 µM
same,MIC90,[1]; [20],14.41 µM
same,MIC50,[1]; [21],1.85 µM
same,MIC90,[1]; [22],5.71 µM
same,MIC,M. tuberculosis H37Rv [2]; [10],6.9 µM
same,MIC,M. tuberculosis H37Rv [2]; [12],31.7 µM
"CO[C@H]1CCC[C@H]2C1=C(C(=O)O)N1C(=O)[C@H]([C@@H](C)O)[C@@H]21 [Sanfetrinem (sodium salt), sodium (1S,5S,8aS,8bR)-1-((R)-1-hydroxyethyl)-5-methoxy-2-oxo-1,2,5,6,7,8,8a,8b-octahydroazeto[2,1-a]isoindole-4-carboxylate]",Lung CFU,M. tuberculosis H37Rv [4],7.3 log CFU
same,Effect on bacterial growth in lung,M. tuberculosis H37Rv [4],preventing bacterial growth
same,Sensitivity of all strains within the concentration range tested,"[5]; MGIT 960, 23 strains, 0.5 to 20 μM",sensitive
same,MIC,"[5]; read-out: MIC, another four strains higher",> 5 µM
same,MIC,"[5]; read-out: MIC, four strains lower",< 5 µM
same,MIC,"[5]; read-out: MIC, most common value",5 µM
same,IC90,M. tuberculosis H37Rv [3]; [14],1.22 µg/mL
same,IC90,"M. tuberculosis H37Rv [3]; Mycobacterium tuberculosis, H37RV, read-out: IC90 of sanfetrinem in combination with amoxicillin (at 10 μg/ml)",0.33 µg/mL
same,IC90,"M. tuberculosis H37Rv [3]; Mycobacterium tuberculosis, H37RV, read-out: IC90 of sanfetrinem in combination with clavulanate",0.55 µg/mL
same,MIC50,[1]; [6],1.65 µM
same,MIC90,[1]; [7],5.57 µM
same,MIC50,[1]; [15],1.32 µM
same,MIC50,[1]; [8],1.64 µM
same,MIC90,[1]; [9],7.25 µM
same,MIC90,[1]; [18],6.13 µM
same,MIC50,[1]; [19],1.64 µM and 2 µM
same,MIC90,[1]; [22],6.8 µM and 8.82 µM
same,MIC,"M. tuberculosis H37Rv [2]; Mycobacterium tuberculosis, H37RV, read-out: MIC μM (average w/o clav), extracellular, without clavulanate, average",5 µM
same,MIC,"M. tuberculosis H37Rv [2]; Mycobacterium tuberculosis, H37RV, read-out: MIC μM (average with clav), extracellular, with 4 μg/ml potassium clavulanate, average",2.9 µM
same,Fold_A,Mtb H37Rv strain; MIC/MICsyn of SFT with AMX,8
same,Fold_A,Mtb H37Rv strain; MIC/MICsyn of SFT with DLD,4
same,Fold_A,Mtb H37Rv strain; MIC/MICsyn of SFT with EMB,4
same,Fold_A,Mtb H37Rv strain; MIC/MICsyn of SFT with RIF,8
same,FIC_A,Mtb H37Rv strain; SFT in the presence of AMX,0.125
same,MICsyn_A,Mtb H37Rv strain; SFT in the presence of AMX,0.5 µM
same,FIC_A,Mtb H37Rv strain; SFT in the presence of DLD,0.25
same,MICsyn_A,Mtb H37Rv strain; SFT in the presence of DLD,0.4 µM
same,FIC_A,Mtb H37Rv strain; SFT in the presence of EMB,0.25
same,MICsyn_A,Mtb H37Rv strain; SFT in the presence of EMB,0.4 µM
same,FIC_A,Mtb H37Rv strain; SFT in the presence of RIF,0.125
same,MICsyn_A,Mtb H37Rv strain; SFT in the presence of RIF,0.4 µM
same,FICI,Mtb H37Rv strain; combination SFT with AMX,0.1875
same,FICI,Mtb H37Rv strain; combination SFT with DLD,0.5
same,FICI,Mtb H37Rv strain; combination SFT with EMB,0.5
same,FICI,Mtb H37Rv strain; combination SFT with RIF,0.25
